In publication PMC9124818 (Pharmacology Research & Perspectives, 2022):
Where two headings read alike, the source gives them in different places.

What was measured:
CYP2C19 = CYP2C19 (Homo sapiens, UniProt P33261); assay: Direct CYP450 inhibition in human liver microsomes (S-mephenytoin 4'-hydroxylation); details: for Inhibition (%): FFA up to 60 µM, nFFA up to 100 µM; for Basic model: R1: R1 = 1 + (Imax,u/Ki,u)
Source text: (§3) A mixed‐gender pool of 200 individual human liver microsomal samples was used.
(§4) This LIMS utilizes the Levenberg-Marquardt algorithm to perform nonlinear regression fitting of the data to the following 4-parameter sigmoidal-logistic IC50 equation:
(§5) As percent of control values are utilized, the Min is set to 0 and the Max is set to 100 (or other values, as appropriate). […] Therefore, when an IC50 value falls outside the concentration range studied, the IC50 values are reported to be greater than the highest concentrations of test article evaluated.

OATP1B1 = target: T1, OATP1B1 (Homo sapiens, UniProt Q9Y6L6); assay: Transporter inhibition, uptake of [3H]-estradiol-17β-glucuronide in HEK293 cells; assay type: in vitro ADME
T1 construct: host or cells: HEK293
T1 sequence (Q9Y6L6 1-691): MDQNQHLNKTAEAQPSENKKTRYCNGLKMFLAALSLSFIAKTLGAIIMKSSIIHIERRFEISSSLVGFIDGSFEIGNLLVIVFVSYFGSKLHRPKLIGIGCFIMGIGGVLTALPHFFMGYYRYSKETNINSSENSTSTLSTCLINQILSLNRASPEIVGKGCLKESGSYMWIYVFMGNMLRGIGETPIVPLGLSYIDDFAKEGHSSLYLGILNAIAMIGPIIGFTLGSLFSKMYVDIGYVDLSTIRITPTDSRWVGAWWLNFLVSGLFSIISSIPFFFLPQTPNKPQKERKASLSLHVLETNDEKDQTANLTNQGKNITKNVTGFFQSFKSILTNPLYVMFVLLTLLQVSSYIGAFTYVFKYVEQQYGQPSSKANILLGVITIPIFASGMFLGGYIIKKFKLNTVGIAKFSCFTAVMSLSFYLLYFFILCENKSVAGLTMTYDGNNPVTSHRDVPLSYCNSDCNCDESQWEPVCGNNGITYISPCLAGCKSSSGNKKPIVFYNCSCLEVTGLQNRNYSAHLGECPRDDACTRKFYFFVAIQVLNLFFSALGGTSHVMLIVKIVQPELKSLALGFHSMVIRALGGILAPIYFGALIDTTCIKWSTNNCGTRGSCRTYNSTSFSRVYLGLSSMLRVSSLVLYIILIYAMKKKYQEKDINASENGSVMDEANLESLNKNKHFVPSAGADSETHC
Procedure: (§1) The test compound (FFA or nFFA) or the positive control substrate ([…], respectively) was added to the donor chamber. […] Cells were then washed, lysed with scintillation cocktail, and analyzed for the probe substrate with a MicroBeta scintillation counter (PerkinElmer, Hopkinton, MA). Transcellular transporter assay conditions are described in Supplemental Table 1. Calculation of IC50 values was based on bidirectional permeability of probe substrate with and without the inhibitor in MDCKII cells expressing BCRP and in Caco‐2 cells expressing P‐gp, and transporter‐dependent uptake of probe substrate in HEK293 cells expressing all other transporters (Supplemental Table 1).
(§2) The transporter-specific uptake of the probe substrate in cells was determined by subtracting the accumulation in the control cells from the accumulation in the transporter-expressing cells.

CYP2C9 = CYP2C9 (Homo sapiens, UniProt P11712); assay: Direct CYP450 inhibition in human liver microsomes (diclofenac 4'-hydroxylation)
Source text: as §3, §4, §5

OAT1 = target: T2, OAT1 (Homo sapiens, UniProt Q4U2R8); assay: Transporter inhibition, uptake of [3H]-p-aminohippurate in HEK293 cells; assay type: in vitro ADME
T2 construct: host or cells: HEK293
T2 sequence (Q4U2R8 1-563): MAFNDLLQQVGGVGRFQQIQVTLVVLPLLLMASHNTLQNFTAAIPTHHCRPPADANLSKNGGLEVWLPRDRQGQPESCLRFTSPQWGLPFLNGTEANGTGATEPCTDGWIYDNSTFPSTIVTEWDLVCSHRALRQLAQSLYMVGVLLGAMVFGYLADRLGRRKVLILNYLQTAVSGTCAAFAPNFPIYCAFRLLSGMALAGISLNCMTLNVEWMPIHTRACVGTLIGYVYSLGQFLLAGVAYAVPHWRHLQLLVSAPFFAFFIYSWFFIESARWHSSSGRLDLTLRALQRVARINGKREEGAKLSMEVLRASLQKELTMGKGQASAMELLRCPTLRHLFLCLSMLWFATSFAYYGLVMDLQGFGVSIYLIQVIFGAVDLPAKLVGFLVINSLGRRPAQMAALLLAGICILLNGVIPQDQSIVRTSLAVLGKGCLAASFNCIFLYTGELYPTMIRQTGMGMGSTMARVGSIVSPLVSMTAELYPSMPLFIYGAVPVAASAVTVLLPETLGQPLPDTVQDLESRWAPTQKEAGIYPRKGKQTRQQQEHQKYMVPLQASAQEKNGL
Procedure: as §1, §2

[1] = direct inhibition, substrate S-mephenytoin

Chain of CYP2C19 (P33261 whole entry): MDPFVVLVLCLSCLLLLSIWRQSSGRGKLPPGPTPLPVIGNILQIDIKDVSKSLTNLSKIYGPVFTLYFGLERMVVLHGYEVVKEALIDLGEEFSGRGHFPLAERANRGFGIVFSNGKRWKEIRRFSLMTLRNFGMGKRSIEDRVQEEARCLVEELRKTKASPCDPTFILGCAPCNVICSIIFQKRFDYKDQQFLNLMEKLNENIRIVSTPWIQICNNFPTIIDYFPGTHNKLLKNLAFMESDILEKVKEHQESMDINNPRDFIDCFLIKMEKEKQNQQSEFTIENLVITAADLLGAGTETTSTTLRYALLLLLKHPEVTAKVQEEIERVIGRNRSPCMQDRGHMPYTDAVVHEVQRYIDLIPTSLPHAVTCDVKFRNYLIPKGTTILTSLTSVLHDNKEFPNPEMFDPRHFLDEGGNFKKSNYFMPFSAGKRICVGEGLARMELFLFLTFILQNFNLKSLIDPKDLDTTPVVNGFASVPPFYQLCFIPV
Chain of CYP2C9 (P11712 whole entry): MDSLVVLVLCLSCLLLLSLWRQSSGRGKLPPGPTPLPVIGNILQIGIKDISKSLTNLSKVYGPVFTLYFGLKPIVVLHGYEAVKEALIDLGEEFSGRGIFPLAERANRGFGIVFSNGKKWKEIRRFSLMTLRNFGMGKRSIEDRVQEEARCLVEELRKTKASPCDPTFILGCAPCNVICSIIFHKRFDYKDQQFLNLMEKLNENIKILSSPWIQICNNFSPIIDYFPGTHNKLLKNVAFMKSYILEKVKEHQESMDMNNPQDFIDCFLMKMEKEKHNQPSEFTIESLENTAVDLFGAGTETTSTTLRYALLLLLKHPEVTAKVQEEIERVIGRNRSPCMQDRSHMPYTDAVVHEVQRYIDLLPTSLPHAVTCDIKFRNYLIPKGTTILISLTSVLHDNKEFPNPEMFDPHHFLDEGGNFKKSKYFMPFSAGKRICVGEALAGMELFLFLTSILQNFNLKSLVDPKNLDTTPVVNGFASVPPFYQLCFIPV

SMILES	IC50 (CYP2C19) [µM]	Inhibition (%) (CYP2C19; [1])	Basic model: Potential for clinical inhibition (CYP2C19; substrate S-mephenytoin)	Static mechanistic model: Potential for clinical inhibition (CYP2C19; substrate S-mephenytoin)	Basic model: R1 (CYP2C19; substrate S-mephenytoin)	IC50 (OATP1B1) [µM]	IC50 (CYP2C9) [µM]	Inhibition (%) (CYP2C9; direct inhibition, substrate diclofenac, FFA up to 60 µM, nFFA up to 100 µM)	Basic model: Potential for clinical inhibition (CYP2C9; substrate diclofenac)	Static mechanistic model: Potential for clinical inhibition (CYP2C9; substrate diclofenac)	Basic model: R1 (CYP2C9; substrate diclofenac, R1 = 1 + (Imax,u/Ki,u))	IC50 (OAT1) [µM]	IC50 (CYP2C19; direct inhibition, human liver microsomes, substrate S-mephenytoin) [µM]	IC50 (OATP1B1; HEK293, probe [3H]-estradiol-17β-glucuronide 50 nM, read-out: IC50) [µM]	IC50 (CYP2C9; direct inhibition, human liver microsomes, substrate diclofenac) [µM]	IC50 (OAT1; HEK293, probe [3H]-p-aminohippurate 1 μM, read-out: IC50) [µM]
CCNC(C)Cc1cccc(C(F)(F)F)c1 (racemic) [FFA, (RS)‐ethyl(α‐methyl‐3‐trifluoromethylphenethyl)amine, reference compound]	> 60	14	No (Potential to inhibit if R1 ≥ 1.02)	No (Potential to inhibit if AUCR ≥ 1.25)	1.01	> 300	> 60	2.4	No (Potential to inhibit if R1 ≥ 1.02)	No (Potential to inhibit if AUCR ≥ 1.25)	1.01	> 30				
CC(N)Cc1cccc(C(F)(F)F)c1.Cl (stereo not shown) [nFFA, [1‐(3‐trifluoromethyl)phenyl]propan‐2‐amine hydrochloride]		2.9	No (Potential to inhibit if R1 ≥ 1.02)	No (Potential to inhibit if AUCR ≥ 1.25)	1.00				No (Potential to inhibit if R1 ≥ 1.02)	No (Potential to inhibit if AUCR ≥ 1.25)			> 100	> 50	> 100	> 50
